Measured values reported in patent US20260158009A1 (GENZYME CORPORATION, priority 2023, published 2026).
pIC50: −log10 of the molar value.

Columns and labels:
[1] = biological target: T1, hRIPK1 (aa 1-375) fusion protein (Homo sapiens, UniProt Q13546); experiment: ADP-Glo kinase assay: catalytic activity of RIPK1 (autophosphorylation, conversion of ATP to ADP); format: biochemical
T1 construct: hRIPK1 (aa 1-375) fusion protein
T1 sequence (Q13546 1-375): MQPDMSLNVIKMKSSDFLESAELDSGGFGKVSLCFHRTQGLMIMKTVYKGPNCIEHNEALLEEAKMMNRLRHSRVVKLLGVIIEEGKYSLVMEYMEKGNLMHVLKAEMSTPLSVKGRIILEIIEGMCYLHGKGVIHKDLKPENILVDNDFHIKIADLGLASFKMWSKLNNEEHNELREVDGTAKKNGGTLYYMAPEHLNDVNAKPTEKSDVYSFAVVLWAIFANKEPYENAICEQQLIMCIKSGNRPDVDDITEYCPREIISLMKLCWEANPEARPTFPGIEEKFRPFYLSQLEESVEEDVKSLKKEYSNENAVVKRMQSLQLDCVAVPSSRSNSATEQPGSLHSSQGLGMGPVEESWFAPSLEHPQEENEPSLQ
Outline: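 hRIPK1 (aa 1-375) fusion protein (3.6 μg/ml final) was preincubated 30 min at rt with compound (33300-1.69 nM, 1% DMSO), then 50 μM ATP was added for 240 min at rt. ADP from autophosphorylation was measured by ADP-Glo luminescence and curves fitted by nonlinear regression.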

U937 cells = experiment: Cellular assay in U937 cells: activity of RIPK1 inhibitors on TNFα/zVAD.fmk-induced cell death (necroptosis), CellTiter 96 AQueous (MTS) readout; format: cell-based; conditions: Homo sapiens, U-937
Outline: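 Necroptosis was measured by viable-cell MTS reduction (4 h, absorbance 490 nm) after overnight (18–24 h) 37° C culture. Cell suspensions of U937 cells carried TNFα (100 ng/ml) plus zVAD.fmk (50 μM) before compound was added. A 10-point curve (10 μM–0.26 nM or 1 μM–0.07 nM) was run in duplicate, normalised to the control lacking TNFα/zVAD.fmk.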

## Cc1nnc2c(F)cc(C[C@H]3CC[C@H](C(=O)N4OCC[C@H]4c4cnccn4)CC3)cn12 [compound 359, trans-[4-[(8-fluoro-3-methyl-[1,2,4]triazolo[4,3-a]pyridin-6-yl)methyl]cyclohexyl]-[(3S)-3-pyrazin-2-yl-1,2-oxazolidin-2-yl]methanone]
[1]
  pIC50: 6.98
U937 cells
  pIC50: 6.35

## Cc1nc(C[C@H]2CC[C@H](C(=O)N3OCCC3c3cnc(C)c(F)c3)CC2)cs1 (stereo partly shown) [compound 360]
[1]
  pIC50: 7.70
U937 cells
  pIC50: 8.15

## Cc1nc2c(C)cc(C[C@H]3CC[C@H](C(=O)N4OCC[C@H]4c4csc(C)n4)CC3)cn2n1 [compound 361, trans-[4-(2,8-Dimethyl-[1,2,4]triazolo[1,5-a]352yridine-6-ylmethyl)-cyclohexyl]-[(S)-3-(2-methyl-thiazol-4-yl)-isoxazolidin-2-yl]-methanone]
[1]
  pIC50: 7.24
U937 cells
  pIC50: 7.46

## Cc1nc([C@@H]2CCON2C(=O)[C@H]2CC[C@H](Cc3cc(C)c4ncnn4c3)CC2)cs1 [compound 362, trans-[(S)-3-(2-Methyl-thiazol-4-yl)-isoxazolidin-2-yl]-[4-(8-methyl-[1,2,4]triazolo[1,5-a]pyridin-6-ylmethyl)-cyclohexyl]-methanone]
[1]
  pIC50: 7.23
U937 cells
  pIC50: 7.28

## Cc1nc([C@@H]2CCON2C(=O)[C@H]2CC[C@H](Cc3cc(F)c4nnc(C)n4c3)CC2)cs1 [compound 363, trans-[4-(8-Fluoro-3-methyl-[1,2,4]triazolo[4,3-a]pyridin-6-ylmethyl)-cyclohexyl]-[(S)-3-(2-methyl-thiazol-4-yl)-isoxazolidin-2-yl]-methanone]
[1]
  pIC50: 6.74
U937 cells
  pIC50: 6.65

## Cc1ccc([C@@H]2CCON2C(=O)[C@H]2CC[C@H](Cc3cc(F)c4nnc(C)n4c3)CC2)cn1 [compound 364, trans-[4-(8-Fluoro-3-methyl-[1,2,4]triazolo[4,3-a]pyridin-6-ylmethyl)-cyclohexyl]-[(S)-3-(6-methyl-pyridin-3-yl)-isoxazolidin-2-yl]-methanone]
[1]
  pIC50: 6.63
U937 cells
  pIC50: 6.31

## Cc1ccc([C@@H]2CCON2C(=O)[C@H]2CC[C@H](Cc3cc(C)c4nnc(C)n4c3)CC2)cn1 [compound 365, trans-[4-(3,8-Dimethyl-[1,2,4]triazolo[4,3-a]pyridin-6-ylmethyl)-cyclohexyl]-[(S)-3-(6-methyl-pyridin-3-yl)-isoxazolidin-2-yl]-methanone]
[1]
  pIC50: 7.01
U937 cells
  pIC50: 7.15

## Cc1cc(C[C@H]2CC[C@H](C(=O)N3OCC[C@H]3c3csc(C)n3)CC2)c(C)cn1 [compound 366, trans-[4-(2,5-Dimethyl-pyridin-4-ylmethyl)-cyclohexyl]-[(S)-3-(2-methyl-thiazol-4-yl)-isoxazolidin-2-yl]-methanone]
[1]
  pIC50: 7.40
U937 cells
  pIC50: 7.96

## COc1cc(C[C@H]2CC[C@H](C(=O)N3OCC[C@H]3c3ccc(C)nc3)CC2)cn2nc(C)nc12 [compound 368, trans-[4-(8-Methoxy-2-methyl-[1,2,4]triazolo[1,5-a]pyridin-6-ylmethyl)-cyclohexyl]-[(S)-3-(6-methyl-pyridin-3-yl)-isoxazolidin-2-yl]-methanone]
[1]
  pIC50: 7.02
U937 cells
  pIC50: 6.91

## Cc1nc([C@@H]2CCON2C(=O)[C@H]2CC[C@H](Cc3ccc(C4(O)COC4)cc3)CC2)cs1 [compound 369, trans-{4-[4-(3-Hydroxy-oxetan-3-yl)-benzyl]-cyclohexyl}-[(S)-3-(2-methyl-thiazol-4-yl)-isoxazolidin-2-yl]-methanone]
[1]
  pIC50: 7.59
U937 cells
  pIC50: 7.62

## Cc1cn2cc(C[C@H]3CC[C@H](C(=O)N4OCC[C@H]4c4csc(C)n4)CC3)cc(F)c2n1 [compound 370, trans-[4-(8-Fluoro-2-methyl-imidazo[1,2-a]pyridin-6-ylmethyl)-cyclohexyl]-[(S)-3-(2-methyl-thiazol-4-yl)-isoxazolidin-2-yl]-methanone]
[1]
  pIC50: 7.47
U937 cells
  pIC50: 7.68
